# Tests used:
# [1] = target: T1, Human collagenase (MMP-1) (Homo sapiens, UniProt P03956); assay: Biochemical assay (Protocol A), Ki at steady state, MMP-1; conditions: preincubation, 37° C., pH=7.4, read-out: Ki at steady state (Ki*) for inhibition of MMP-1
# T1 sequence (P03956 101-269): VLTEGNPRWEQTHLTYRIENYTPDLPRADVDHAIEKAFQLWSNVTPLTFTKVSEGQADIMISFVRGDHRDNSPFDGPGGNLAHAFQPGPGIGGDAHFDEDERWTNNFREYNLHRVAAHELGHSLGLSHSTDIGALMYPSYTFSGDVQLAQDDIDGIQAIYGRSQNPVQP
# Method: (§1) Human gelatinase-A (MMP-2) was obtained as pro-enzyme (72 kDa) and was activated with 1 mM 4-aminophenylmercuric acetate for 30 min at 37° C. immediately prior to use. Human stromelysin-1-255 (MMP-3) was obtained as a recombinant pro-enzyme isolated from E. coli and activated by heat (1 h, 55° C.).
# (§2) The substrate was the commercial quenched-fluorescence peptide Mca-Pro-Leu-Gly-Leu-Dpa-Ala-Arg-NH2, that is (7-methoxycoumarin4-yl)Acetyl-Pro-Leu-Glv-Leu-(3-[2,4-dinitrophenyl]-L-2,3-diamino-propionyl)-Ala-Arg-NH2 (C. G. Knight et al., FEBS Lett.296:263, 1992). The enzymes cleave at the Gly-Leu bond, removing the internally quenching Dpa group. Release of the highly fluorescent peptide Mca-Pro-Leu was followed fluorimetrically at 37° C. using a Perkin Elmer LS-50 Fluorescence Spectrophotometer fitted with a thermostatted four position stirring cell changer. The excitation wavelength was set at 326 nm (bandwidth 5 nm) and the emission at 392 nm (bandwidth 20 nm). Km values of this substrate for the three MMP's is 70 μM or more (Knight et al., reference above). Substrate concentration was 2 μM in the tests, so that we could approximate to unit the term (1+[substrate]/KM) in calculations. The substrate was stable for over 60 minutes in the assay conditions, giving no appreciable increment of fluorescence. Full response was adjusted against 200 nM Mca-Pro-Leu-OH (the released fluorescent peptide) and the instrument was calibrated in the range 0-100 nM Mca-Pro-Leu-OH, corresponding to 0-5% extent of hydrolysis of the 2 μM substrate. The aqueous assay buffer was 50 mM Tris/HCl pH=7.4 containing 0.15 M NaCl, 10 mM CaCl2, 0.01 mM ZnCl2 and 0.05% Brij 35. The concentration of the activated enzyme was determined by titration against representative inhibitors described in the literature and synthesized in house: Roche Ro31-9790 (N. G. Knebel et al., J. Chromatogr. B 673:213, 1995) for MMP-1, and Celltech CT-1418 (compound 1 in S. K. Chander, J. Pharm. Sci. 84:404, 1995) for MMP-2 and MMP-3. Enzyme concentrations in the tests were set at 1.0 nM for MMP-1, 0.04 nM for MMP-2, and 3.0 nM for M-3. Under our assay conditions, we measured keat/KM values of 26900, 669000 and 9740 1/(M×s) for MMP-1, MMP-2 and MMP-3, respectively. All the three enzymes were found stable for over three hours in the assay conditions.
# (§3) The inhibition constant for compounds of the present invention was measured at steady state (Ki*; see J. F. Morrison and C. T. Walsh, Adv. Enzymol. Relat. Areas Mol. Biol. 61:201, 1988), upon preincubation experiment, by measuring V0, the initial rate in the absence of inhibitor, and Vs, the steady-state velocity, at different concentrations of inhibitors in the region of their enzyme-inhibitor dissociation constants.
# (§4) On a routine basis, 1.94 mL of assay buffer was pre-heated at 37° C. in a vial, 0.02 mL of inhibitor in DMSO (or DMSO only), and 0.02 ml of 100 nM MMP-1 or 4 nM MMP-2 or 300 nM MMP-3 were added, mixed, and the vial was held at 37° C. for 5-180 minutes. Then 0.02 ml of 0.2 mM substrate was added, mixed and transferred into a pre-heated cell. The sample was allowed to equilibrate in the cuvette for 3-5 min at 37° C. against small changes in temperature and changes in the enzyme-inhibitor equilibria related to addition of substrate. After that, the linear increase of fluorescence was monitored over 3-5 min, and the slope (Vo or Vs) was obtained. Inhibitor concentrations were varied to collect data over Vs/Vo ratio ranging from 0.05 to 0.95. The values of Ki* were calculated by nonlinear weighted regression to the tight-binding equation according to Morrison and Walsh above:
# (§5) Vs/Vo=[1/(2×Et)]×SQR[(Ki*+It−Et)^2+4×Ki*×Et]−(Ki*+It−Et)
# (§6) wherein Et is the total enzyme concentration, and It is the total inhibitor concentration. The following Table I lists Ki* obtained for some representative examples: […]
# [2] = target: T2, Human gelatinase-A (MMP-2) (Homo sapiens, UniProt P08253); assay: Biochemical assay (Protocol A), Ki at steady state, MMP-2; conditions: preincubation, 37° C., pH=7.4, read-out: Ki at steady state (Ki*) for inhibition of MMP-2
# T2 sequence (P08253 110-660): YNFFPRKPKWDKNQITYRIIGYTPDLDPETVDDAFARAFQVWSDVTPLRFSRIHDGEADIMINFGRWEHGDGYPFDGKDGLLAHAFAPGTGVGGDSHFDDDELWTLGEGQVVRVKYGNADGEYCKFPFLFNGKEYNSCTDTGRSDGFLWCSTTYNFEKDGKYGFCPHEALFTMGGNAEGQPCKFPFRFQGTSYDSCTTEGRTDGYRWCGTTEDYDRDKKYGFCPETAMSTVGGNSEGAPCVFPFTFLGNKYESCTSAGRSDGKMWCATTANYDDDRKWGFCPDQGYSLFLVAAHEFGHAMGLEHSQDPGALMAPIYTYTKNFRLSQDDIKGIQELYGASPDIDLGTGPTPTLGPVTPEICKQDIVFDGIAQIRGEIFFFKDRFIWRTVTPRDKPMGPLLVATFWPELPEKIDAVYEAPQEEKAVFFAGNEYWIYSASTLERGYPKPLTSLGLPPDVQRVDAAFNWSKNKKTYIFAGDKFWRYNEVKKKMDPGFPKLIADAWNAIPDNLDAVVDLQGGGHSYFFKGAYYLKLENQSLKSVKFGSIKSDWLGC
# Method: as §1, §2, §3, §4, §5, §6
# [3] = target: T3, Human stromelysin-1-255 (MMP-3) (Homo sapiens, UniProt P08254); assay: Biochemical assay (Protocol A), Ki at steady state, MMP-3; conditions: preincubation, 37° C., pH=7.4, read-out: Ki at steady state (Ki*) for inhibition of MMP-3
# T3 construct: host or cells: E. coli
# Method: as §1, §2, §3, §4, §5, §6
# T3 sequence (P08254 100-255 limits assumed): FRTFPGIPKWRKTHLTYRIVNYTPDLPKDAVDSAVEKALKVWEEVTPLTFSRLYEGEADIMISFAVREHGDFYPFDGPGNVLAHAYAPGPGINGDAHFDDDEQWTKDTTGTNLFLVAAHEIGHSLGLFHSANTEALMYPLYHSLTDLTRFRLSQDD
SMILES,Ki [1],Ki [2],Ki [3]
"COc1ccc(CCC[C@@H](C(=O)N2CCOCC2)[C@H](NC(=O)OC(C)(C)C)C(=O)NO)cc1 [Example 15, (3S-tert-Butoxycarbonylamino-4-hydroxyamino-2R-(4-methoxy)phenpropyl)succinyl-morpholinamide]",17000 nM,630 nM,6500 nM
"CS(=O)(=O)N[C@H](C(=O)NO)[C@@H](CC1CCCC1)C(=O)N1CCN(Cc2ccc3c(c2)OCO3)CC1 [Example 47, (2R-Cyclopentylmethyl-4-hydroxyamino-3S-(methylsulfonyl)amino)succinyl-(4-piperonyl)piperazinamide]",4.6 nM,28 nM,140 nM
"CN(C)[C@H](C(=O)NO)[C@@H](CC1CCCC1)C(=O)N1CCN(Cc2ccc3c(c2)OCO3)CC1 [Example 35, (2R-Cyclopentylmethyl-3S-N,N-dimethylamino-4-hydroxyamino)succinyl-(4-piperonyl)-piperazinamide]",2.9 nM,8 nM,31 nM
"COc1ccc(CCC[C@@H](C(=O)N2CCCCC2)[C@H](NC(=O)OC(C)(C)C)C(=O)NO)cc1 [Example 17, (3S-tert-Butoxycarbonylamino-4-hydroxyamino-2R-(4-methoxy)phenpropyl)succinyl-piperidinamide]",9400 nM,610 nM,4300 nM
"COc1ccc(S(=O)(=O)N[C@H](C(=O)NO)[C@@H](CC2CCCC2)C(=O)N2CCN(Cc3ccc4c(c3)OCO4)CC2)cc1 [Example 37, (2R-Cyclopentylmethyl-4-hydroxyamino-3S-(4-methoxyphenyl)sulfonylamino)succinyl-(4-piperonyl)piperazinamide]",1.8 nM,2.6 nM,35 nM
"O=C(NO)[C@@H](NS(=O)(=O)c1ccc(F)cc1)[C@@H](CC1CCCC1)C(=O)N1CCCCC1 [Example 61, (2R-Cyclopentylmethyl-3S-(4-fluorophenylsulfonyl)amino-4-hydroxyamino)succinylpiperidinamide]",7.8 nM,66 nM,–
"CC(C)C[C@@H](C(=O)NC(C1CCCCC1)C1CCCCC1)[C@H](N)C(=O)NO [Example 24, (3S-Amino-4-hydroxyamino-2R-isobutyl)succinyl-dicyclohexylmethylamide]",170 nM,400 nM,11000 nM
"CC(C)(C)OC(=O)N[C@H](C(=O)NO)[C@@H](CC1CCCC1)C(=O)N1CCN(Cc2ccc3c(c2)OCO3)CC1 [Example 26, (3S-tert-Butoxycarbonylamino-2R-cyclopentylmethyl-4-hydroxyamino)succinyl-(4-piperonyl)piperazinamide]",71 nM,100 nM,600 nM
"CN(C)[C@H](C(=O)NO)[C@@H](CC1CCCC1)C(=O)N1CCCCC1 [Example 30, (2R-Cyclopentylmethyl-3S-N,N-dimethylamino-4-hydroxyamino)succinyl-piperidinamide]",3.6 nM,25 nM,270 nM
"CNC(=O)[C@H](Cc1ccccc1)N(C)C(=O)[C@H](CC(C)C)[C@H](N)C(=O)NO [Example 44, (3S-Amino-4-hydroxyamino-2R-isobutyl)succinyl-N-methyl-N-(1S-methylaminocarbonyl-2-phenyl)ethylamide]",8.9 nM,2.3 nM,210 nM

# The remaining lines, values ahead:
Ki [1],Ki [2],Ki [3],SMILES
3 nM,16 nM,145 nM,"COc1ccc(S(=O)(=O)N[C@H](C(=O)NO)[C@@H](CC2CCCC2)C(=O)N2CCCCC2)cc1 [Example 23, (2R-Cyclopentylmethyl-4-hydroxyamino-3S-(4-methoxyphenylsulfonyl)amino)succinyl-piperidinamide]"
7500 nM,600 nM,10000 nM,"COc1ccc(CCC[C@@H](C(=O)N2CCC2)[C@H](N)C(=O)NO)cc1 [Example 28, (3S-Amino-4-hydroxyamino-2R-(4-methoxy)phenpropyl)succinyl-azetidinamide]"
1400 nM,16 nM,760 nM,"COc1ccc(CCC[C@@H](C(=O)N2CCN(c3ccccn3)CC2)[C@H](N)C(=O)NO)cc1 [Example 42, (3S-Amino-4-hydroxyamino-2R-(4-methoxy)phenpropyl)succinyl-4-(2-pyridyl)piperazinamide]"
2000 nM,40 nM,390 nM,"COc1ccc(CCC[C@@H](C(=O)N2CCOCC2)[C@H](NS(=O)(=O)c2ccc(OC)cc2)C(=O)NO)cc1 [Example 20, (4-Hydroxyamino-3S-(4-methoxyphenylsulfonyl)amino-2R-(4-methoxy)phenpropyl)succinyl-morpholinamide]"
760 nM,90 nM,806 nM,"COc1ccc(CCC[C@@H](C(=O)N2CCCCC2)[C@H](NCc2cccnc2)C(=O)NO)cc1 [Example 39, (4-Hydroxyamino-2R-(4-methoxy)phenpropyl-3S-(3-pyridyl)methylamino)succinyl-piperidinamide]"
> 10000 nM,460 nM,6600 nM,"COc1ccc(CCC[C@@H](C(=O)N[C@@H](C)C2CCCCC2)[C@H](N)C(=O)NO)cc1 [Example 33, (3S-Amino-4-hydroxyamino-2R-(4-methoxy)phenpropyl)succinyl-(1S-cyclohexylethyl)amide]"
2400 nM,21 nM,1400 nM,"COc1ccc(CCC[C@@H](C(=O)N2CCC(C(=O)NC(C)(C)C)CC2)[C@H](N)C(=O)NO)cc1 [Example 34, (3S-Amino-4-hydroxyamino-2R-(4-methoxy)phenpropyl)succinyl-(4-tert-butylaminocarbonyl)piperidinamide]"
2600 nM,37 nM,500 nM,"COc1ccc(CCC[C@@H](C(=O)N[C@H](C)C2CCCCC2)[C@H](N)C(=O)NO)cc1 [Example 32, (3S-Amino-4-hydroxyamino-2R-(4-methoxy)phenpropyl)succinyl-(1R-cyclohexylethyl)amide]"
